Laboratory results from US20120028358A1, “METHOD FOR INCREASING RETROVIRAL INFECTIVITY” (priority 2010, published 2012).

Tested on: rat PMVEC
Assay: Gamma-retroviral infection efficiency of PMVEC (percent fluorescent cells by FACS)
Format: cell-based
Settings: 1 μmol/L; MMLV with ecotropic, amphotropic, VSV-G pantropic envelope
Description: Cell cultures: Phoenix Retroviral Expression System ecotropic and amphotropic packaging cells were purchased from Orbigen, Inc. (San Diego, Calif.). […] Rat pulmonary microvascular endothelial cells (PMVEC), were obtained from our cell culture core at the University of South Alabama (King J, et al. Structural and functional characteristics of lung macro and microvascular endothelial phenotypes. Microvascular Res. 2004, March, 67(2). 139-151). Human glioblastoma cells (U87MG), and human mammary carcinoma cells (T47D) were obtained from ATCC. All cells were cultured in DMEM, 10% FBS, 2 mmol L-Glutamine and used for experiments at passages 4-9. All cells were grown in humidified incubators at 37° C. in 5% CO2. Cells were harvested by 0.05% trypsin/0.53 mM EDTA digestion, washed, re-suspended in cultured medium and analyzed directly by FACScan in the University of South Alabama Flow Cytometry Core. For cell cycle analysis cellular DNA was stained with […] of propridium iodide for 20 minutes as described elsewhere (48) and then analyzed by FACScan.
Vectors and delivery systems: pBMN-GFP (Orbigen, Inc., San Diego, Calif.), a retroviral vector that expresses GFP driven by the MMLV's promoter in Phoenix and other cells was used. […]

CC#C[C@]1(O)CC[C@H]2[C@@H]3CCC4=CC(=O)CCC4=C3[C@@H](c3ccc(N(C)C)cc3)C[C@@]21C [mifepristone, 11-beta-(4-dimethylaminophenyl)-17-beta-hydroxy-17-alpha-(1-propynyl)-estra-4,9-dien-3-one]
Percentage of infected cells: doubled
